Test results reported in PubChem BioAssay (NCI).
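Cells were grown in 96-well plates and exposed to each compound for 48 hours at five concentrations; endpoints were interpolated linearly between bracketing concentrations, or set to the highest concentration if not reached. TGI: concentration producing complete growth inhibition.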 Where a SMILES comes first, the peptide text is derived from it.

How the values were obtained:
Experiment in all cases: DTP human tumour cell line panel, 48 h
DMS 114 small cell lung = tested on: DMS 114 small cell lung
HOP-62 NSCLC = tested on: HOP-62 NSCLC
TK-10 renal = tested on: TK-10 renal
SNB-78 CNS = tested on: SNB-78 CNS
XF 498 CNS = tested on: XF 498 CNS
NCI-H23 lung = tested on: NCI-H23 lung
MALME-3M melanoma = tested on: MALME-3M melanoma
SF-295 CNS = tested on: SF-295 CNS
DLD-1 colon = tested on: DLD-1 colon
A498 renal = tested on: A498 renal
HCT-116 colon = tested on: HCT-116 colon
HOP-18 NSCLC = tested on: HOP-18 NSCLC
BT-549 breast = tested on: BT-549 breast

In the case of `COc1ccc(C2c3cc4c(cc3OC(O)(CO)C2C(=O)O)OCO4)cc1` (stereo unspecified) (tested in a mixture with another compound), the TGI (DMS 114 small cell lung) is reported as 61.3 µM, the TGI (HOP-62 NSCLC) is reported as over 100 µM and the TGI (TK-10 renal) is reported as over 100 µM. It also gave a TGI (SNB-78 CNS) of 59 µM, a TGI (XF 498 CNS) of 16.6 µM and a TGI (NCI-H23 lung) of 50.8 µM. For the same compound, the TGI (MALME-3M melanoma) was 75.9 µM, the TGI (SF-295 CNS) was 57.3 µM and the TGI (DLD-1 colon) was 54.9 µM. For the same compound, the TGI (A498 renal) was over 100 µM, the TGI (HCT-116 colon) was 33.1 µM and the TGI (HOP-18 NSCLC) was over 100 µM.
`COC(OC)C1OC(CO)C(n2cc(F)c(=O)[nH]c2=O)C1O` (stereo unspecified) gave a TGI (HOP-62 NSCLC) of over 100 µM, a TGI (TK-10 renal) of over 100 µM and a TGI (NCI-H23 lung) of over 100 µM. It also gave a TGI (SF-295 CNS) of over 100 µM, a TGI (BT-549 breast) of over 100 µM and a TGI (A498 renal) of over 100 µM. The TGI (HCT-116 colon) was over 100 µM.
With `CC(=O)c1ccc2c(c1)N(CCCN1CCN(CCO)CC1)c1ccccc1C2` the TGI (HOP-62 NSCLC) was 30.3 µM, the TGI (TK-10 renal) was 29.1 µM and the TGI (NCI-H23 lung) was 30.1 µM. For the same compound, the TGI (MALME-3M melanoma) was 33 µM, the TGI (SF-295 CNS) was 31.8 µM and the TGI (BT-549 breast) was 28.1 µM. It also gave a TGI (A498 renal) of 30.1 µM and a TGI (HCT-116 colon) of 30.5 µM.
`CC(=O)Oc1ccc(CO)cc1OC(C)=O` showed a TGI (DMS 114 small cell lung) of over 100 µM, a TGI (HOP-62 NSCLC) of over 100 µM and a TGI (TK-10 renal) of over 100 µM. For the same compound, the TGI (SNB-78 CNS) was over 100 µM, the TGI (XF 498 CNS) was over 100 µM and the TGI (MALME-3M melanoma) was over 100 µM. The TGI (SF-295 CNS) was over 100 µM, the TGI (DLD-1 colon) was over 100 µM and the TGI (A498 renal) was over 100 µM. For the same compound, the TGI (HCT-116 colon) was over 100 µM and the TGI (HOP-18 NSCLC) was over 100 µM.
In the case of `COc1cc2c(cc1OCCCCCCCCN1C(=O)c3cccc4cccc(c34)C1=O)N=C[C@@H]1CCCN1C2=O`, the TGI (HOP-62 NSCLC) is reported as over 100 µM, the TGI (TK-10 renal) is reported as over 100 µM and the TGI (NCI-H23 lung) is reported as 36.3 µM. It also gave a TGI (MALME-3M melanoma) of 49.2 µM, a TGI (SF-295 CNS) of 43 µM and a TGI (BT-549 breast) of 35.1 µM. For the same compound, the TGI (HCT-116 colon) was over 100 µM.
`O=c1[nH]c(Nc2ccc(Cl)cc2)nc2nc[nH]c12` gave a TGI (HOP-62 NSCLC) of over 100 µM, a TGI (TK-10 renal) of over 100 µM and a TGI (NCI-H23 lung) of over 100 µM. It also gave a TGI (MALME-3M melanoma) of over 100 µM, a TGI (SF-295 CNS) of over 100 µM and a TGI (BT-549 breast) of over 100 µM. The TGI (A498 renal) was over 100 µM and the TGI (HCT-116 colon) was over 100 µM.
`O=C(O)C(O)C(O)C(O)C(=O)CO` (stereo unspecified) showed a TGI (HOP-62 NSCLC) of over 100 µM, a TGI (TK-10 renal) of over 100 µM and a TGI (NCI-H23 lung) of over 100 µM. For the same compound, the TGI (MALME-3M melanoma) was over 100 µM, the TGI (SF-295 CNS) was over 100 µM and the TGI (BT-549 breast) was over 100 µM. For the same compound, the TGI (A498 renal) was over 100 µM and the TGI (HCT-116 colon) was over 100 µM.
Work on `COC(=O)C1=C(O)CCCC(CCC(C)=O)=C1` yielded a TGI (TK-10 renal) of over 100 µM, a TGI (NCI-H23 lung) of over 100 µM and a TGI (MALME-3M melanoma) of over 100 µM. For the same compound, the TGI (SF-295 CNS) was over 100 µM, the TGI (BT-549 breast) was over 100 µM and the TGI (A498 renal) was over 100 µM. For the same compound, the TGI (HCT-116 colon) was 36.1 µM.
`Nc1cc(-c2ccc(Cl)cc2)nn1-c1nc2ccccc2nc1-c1ccccc1` showed a TGI (HOP-62 NSCLC) of over 100 µM, a TGI (TK-10 renal) of over 100 µM and a TGI (MALME-3M melanoma) of over 100 µM. It also gave a TGI (SF-295 CNS) of over 100 µM, a TGI (BT-549 breast) of over 100 µM and a TGI (A498 renal) of over 100 µM. For the same compound, the TGI (HCT-116 colon) was over 100 µM.
`COC(=S)OC1CC(n2cnc3c(N)ncnc32)OC1CO[Si](C)(C)C(C)(C)C` (stereo unspecified) showed a TGI (HOP-62 NSCLC) of 32.8 µM, a TGI (TK-10 renal) of over 100 µM and a TGI (NCI-H23 lung) of 38.7 µM. For the same compound, the TGI (MALME-3M melanoma) was 66.8 µM, the TGI (SF-295 CNS) was 34.6 µM and the TGI (BT-549 breast) was 64.1 µM. It also gave a TGI (A498 renal) of 56.9 µM and a TGI (HCT-116 colon) of 31.3 µM.
`N#Cc1c(N)nc2c(c1-c1ccc(Br)cc1)CSc1ccccc1-2` gave a TGI (HOP-62 NSCLC) of over 100 µM, a TGI (TK-10 renal) of over 100 µM and a TGI (NCI-H23 lung) of over 100 µM. For the same compound, the TGI (MALME-3M melanoma) was over 100 µM, the TGI (BT-549 breast) was over 100 µM and the TGI (A498 renal) was over 100 µM. It also gave a TGI (HCT-116 colon) of over 100 µM.
With `C1=CC(=[N+]2N=C(c3ccccc3)CC2c2ccccc2)C=CC1=C1SC(c2ccccc2)(c2ccccc2)c2ccccc21` (stereo unspecified) the TGI (HOP-62 NSCLC) was over 100 µM, the TGI (TK-10 renal) was over 100 µM and the TGI (NCI-H23 lung) was over 100 µM. It also gave a TGI (MALME-3M melanoma) of over 100 µM, a TGI (SF-295 CNS) of over 100 µM and a TGI (BT-549 breast) of over 100 µM. The TGI (A498 renal) was over 100 µM and the TGI (HCT-116 colon) was over 100 µM.
`C/C(N=Nc1nc2ccccc2[nH]1)=C1/C=CC=CN1O` gave a TGI (HOP-62 NSCLC) of over 100 µM, a TGI (TK-10 renal) of over 100 µM and a TGI (NCI-H23 lung) of over 100 µM. It also gave a TGI (MALME-3M melanoma) of over 100 µM, a TGI (SF-295 CNS) of over 100 µM and a TGI (BT-549 breast) of over 100 µM. The TGI (A498 renal) was over 100 µM and the TGI (HCT-116 colon) was over 100 µM.
Work on `CCC(C)C(NC(=O)C1CCCN1C(=O)C(CC(C)C)NC(=O)C(CC(C)C)NC(=O)C(N)CC(C)C)C(=O)NC(C(=O)NCC(=O)NC(CC(N)=O)C(=O)NC(CC(C)C)C(=O)NC(CC(C)C)C(=O)NC(CC(C)C)C(N)=O)C(C)C` (stereo unspecified) (H-LLLPIVGNLLL-NH2; configuration not given here) yielded a TGI (HOP-62 NSCLC) of over 50 µM, a TGI (TK-10 renal) of over 50 µM and a TGI (NCI-H23 lung) of over 50 µM. It also gave a TGI (MALME-3M melanoma) of over 50 µM, a TGI (SF-295 CNS) of over 50 µM and a TGI (BT-549 breast) of over 50 µM. It also gave a TGI (A498 renal) of over 50 µM and a TGI (HCT-116 colon) of over 50 µM.
With `CSCCC(NC(=O)OCc1ccccc1)P(=O)(O)c1ccccc1` (stereo unspecified) the TGI (HOP-62 NSCLC) was over 100 µM, the TGI (TK-10 renal) was over 100 µM and the TGI (NCI-H23 lung) was over 100 µM. It also gave a TGI (SF-295 CNS) of over 100 µM and a TGI (HCT-116 colon) of over 100 µM.
Compound `CCOC(=O)C(=O)NCCCN1CCOCC1` has a TGI (DMS 114 small cell lung) of over 100 µM, a TGI (HOP-62 NSCLC) of over 100 µM and a TGI (TK-10 renal) of over 100 µM. For the same compound, the TGI (SNB-78 CNS) was over 100 µM, the TGI (XF 498 CNS) was over 100 µM and the TGI (NCI-H23 lung) was over 100 µM. The TGI (MALME-3M melanoma) was over 100 µM, the TGI (SF-295 CNS) was over 100 µM and the TGI (DLD-1 colon) was over 100 µM. It also gave a TGI (A498 renal) of over 100 µM, a TGI (HCT-116 colon) of over 100 µM and a TGI (HOP-18 NSCLC) of over 100 µM.
